Results published in patent publication US12528800B2, “Pesticidal compounds” (BASF SE, priority 2018, dated 2026).

Tests used:
Type in all cases: in vivo
[1] = test system: tobacco budworm (Heliothis virescens); test: Action on tobacco budworm (Heliothis virescens), microtiter plate diet test; conditions: 120 h, egg and larval mortality after 5 days, read-out: mortality in comparison with untreated controls
Experimental: For evaluating control of tobacco budworm (Heliothis virescens) the test unit consisted of 96-well-microtiter plates containing an insect diet and 15-25 H. virescens eggs.
The compounds were formulated using a solution containing 75% v/v water and 25% v/v DMSO. Different concentrations of formulated compounds were sprayed onto the insect diet at 10 μl, using a custom-built micro atomizer, at two replications.
After application, microtiter plates were incubated at about 28+1° C. and about 80+5% relative humidity for 5 days. Egg and larval mortality were then visually assessed.

[2] = test system: Diamond back moth (Plutella xylostella); test: Action on diamond back moth (Plutella xylostella), cabbage leaf dip; conditions: foliar, 3rd instar larvae on dipped cabbage leaves, 72 hours after treatment, read-out: mortality in comparison with untreated controls
Experimental: The active compound is dissolved at the desired concentration in a mixture of 1:1 (v/v) distilled water: acetone. Surfactant (Kinetic® HV) is added at a rate of 0.01% (v/v). The test solution is prepared at the day of use.
Leaves of cabbage were dipped in test solution and air-dried. Treated leaves were placed in petri dishes lined with moist filter paper and inoculated with ten 3rd instar larvae. Mortality was recorded 72 hours after treatment. Feeding damages were also recorded using a scale of 0-100%.

[3] = test system: boll weevil (Anthonomus grandis); test: Action on boll weevil (Anthonomus grandis), microtiter plate diet test; conditions: 120 h, egg and larval mortality after 5 days, read-out: mortality in comparison with untreated controls
Experimental: For evaluating control of boll weevil (Anthonomus grandis) the test unit consisted of 96-well-microtiter plates containing an insect diet and 5-10 A. grandis eggs.
The compounds were formulated using a solution containing 75% (v/v) water and 25% (v/v) DMSO. Different concentrations of formulated compounds were sprayed onto the insect diet at 5 μl, using a custom built micro atomizer, at two replications.
After application, microtiter plates were incubated at about 25+1° C. and about 75+5% relative humidity for 5 days. Egg and larval mortality was then visually assessed.

[4] = test system: Orchid thrips (Dichromothrips corbetti); test: Action on orchid thrips (Dichromothrips corbetti), floral-immersion technique; conditions: adult thrips, 72 hours after treatment, read-out: mortality in comparison with untreated controls
Experimental: Dichromothrips corbetti adults used for bioassay were obtained from a colony maintained continuously under laboratory conditions. For testing purposes, the test compound is diluted in a 1:1 mixture of acetone:water (vol:vol), plus Kinetic® HV at a rate of 0.01% v/v.
Thrips potency of each compound was evaluated by using a floral-immersion technique. All petals of individual, intact orchid flowers were dipped into treatment solution and allowed to dry in Petri dishes. Treated petals were placed into individual re-sealable plastic along with about 20 adult thrips. All test arenas were held under continuous light and a temperature of about 28° C. for duration of the assay. After 3 days, the numbers of live thrips were counted on each petal. The percent mortality was recorded 72 hours after treatment.

[5] = test system: yellow fever mosquito (Aedes aegypti); test: whole plant or invertebrate; conditions: 48 h, larval mortality visually assessed after 2 days, read-out: mortality in comparison with untreated controls
Experimental: For evaluating control of yellow fever mosquito (Aedes aegypti) the test unit consisted of 96-well-microtiter plates containing 200 μl of tap water per well and 5-15 freshly hatched A. aegypti larvae.
The active compounds or mixtures were formulated using a solution containing 75% (v/v) water and 25% (v/v) DMSO. Different concentrations of formulated compounds or mixtures were sprayed onto the insect diet at 2.5 μl using a custom built micro atomizer, at two replications.
For experimental mixtures in these tests identical volumes of both mixing partners at the desired concentrations respectively, were mixed together.
After application, microtiter plates were incubated at 28+1° C., 80+5% RH for 2 days. Larval mortality was then visually assessed.

[6] = test system: Southern armyworm (Spodoptera eridania), 2nd instar larvae; test: Action on southern armyworm (Spodoptera eridania), 2nd instar larvae, sprayed lima bean plants; conditions: 96 h, 2nd instar larvae on lima bean plants, 4 days after treatment, read-out: mortality in comparison with untreated controls
Experimental: The active compounds were formulated by a Tecan liquid handler in 100% cyclohexanone as a 10,000 ppm solution supplied in tubes. The 10,000 ppm solution was serially diluted in 100% cyclohexanone to make interim solutions. These served as stock solutions for which final dilutions were made by the Tecan in 50% acetone:50% water (v/v) into 10 or 20 ml glass vials. A nonionic surfactant (Kinetic®) was included in the solution at a volume of 0.01% (v/v). The vials were then inserted into an automated electrostatic sprayer equipped with an atomizing nozzle for application to plants/insects.
Lima bean plants (variety Sieve) were grown 2 plants to a pot and selected for treatment at the 1st true leaf stage. Test solutions were sprayed onto the foliage by an automated electrostatic plant sprayer equipped with an atomizing spray nozzle. The plants were dried in the sprayer fume hood and then removed from the sprayer. Each pot was placed into perforated plastic bags with a zip closure. About 10 to 11 armyworm larvae were placed into the bag and the bags zipped closed. Test plants were maintained in a growth room at about 25° C. and about 20-40% relative humidity for 4 days, avoiding direct exposure to fluorescent light (24 hour photoperiod) to prevent trapping of heat inside the bags. Mortality and reduced feeding were assessed 4 days after treatment, compared to untreated control plants.

SMILES	mortality at 800 ppm [1] [%]	mortality at 500 ppm [2] [%]	mortality at 800 ppm [3] [%]	mortality at 500 ppm [4] [%]	mortality at 800 ppm [5] [%]	mortality at 300 ppm [6] [%]
CC(C)c1ccccc1NC(=S)N/N=C/c1ccc(-c2nc(NC(=O)c3ccc(OC(F)(F)F)cc3)n(C)n2)cc1 [Compound C-63, N-[5-[4-[(E)-[(2-isopropylphenyl)carbamothioylhydrazono]methyl]phenyl]-2-methyl-1,2,4-triazol-3-yl]-4-(trifluoromethoxy)benzamide]	≥ 75	≥ 75	≥ 75	≥ 75	–	–
CC(C)c1ccccc1NC(=S)N/N=C/c1ccc(-c2cc(NCc3ccc(OC(F)(F)F)cc3)n(C)n2)cc1 [Compound C-3, 1-(2-isopropylphenyl)-3-[(E)-[4-[1-methyl-5-[[4-(trifluoromethoxy)phenyl]methylamino]pyrazol-3-yl]phenyl]methyleneamino]thiourea]	≥ 75	≥ 75	≥ 75	≥ 75	≥ 50	≥ 75
CC(C)c1ccccc1N1C(=O)CS/C1=N\N=C\c1ccc(-c2nc(NC(=O)c3ccc(OC(F)(F)F)cc3)n(C)n2)cc1 [Compound C-64, N-[5-[4-[(E)-[(Z)-[3-(2-isopropylphenyl)-4-oxo-thiazolidin-2-ylidene]hydrazono]methyl]phenyl]-2-methyl-1,2,4-triazol-3-yl]-4-(trifluoromethoxy)benzamide]	≥ 75	≥ 75	≥ 75	≥ 75	≥ 50	≥ 75
CC(C)c1ccccc1N1C(=O)CS/C1=N\N=C\c1ccc(-c2cc(C(=O)Nc3ccc(OC(F)(F)F)cc3)n(C)n2)cc1 [Compound C-47, 5-[4-[(E)-[(Z)-[3-(2-isopropylphenyl)-4-oxo-thiazolidin-2-ylidene]hydrazono]methyl]phenyl]-2-methyl-N-[4-(trifluoromethoxy)phenyl]pyrazole-3-carboxamide]	≥ 75	≥ 75	–	–	≥ 50	≥ 75
CCn1nc(-c2ccc(/C=N/O[C@@H]3O[C@@H](C)[C@H](OC)[C@@H](OC)[C@H]3OC)cc2)cc1NC(=O)c1ccc(OC(F)(F)F)cc1 [Compound C-32, N-[2-ethyl-5-[4-[(E)-[(2S,3R,4R,5S,6S)-3,4,5-trimethoxy-6-methyl-tetrahydropyran-2-yl]oxyiminomethyl]phenyl]pyrazol-3-yl]-4-(trifluoromethoxy)benzamide]	≥ 75	≥ 75	≥ 75	–	≥ 50	≥ 75
CC(C)c1ccccc1/N=C1\SCC(=O)N1/N=C/c1ccc(-c2cc(OCc3ccc(OC(F)(F)F)cc3)n(C)n2)cc1 [Compound C-12, (2Z)-2-(2-isopropylphenyl)imino-3-[(E)-[4-[1-methyl-5-[[4-(trifluoromethoxy)phenyl]methoxy]pyrazol-3-yl]phenyl]methyleneamino]thiazolidin-4-one]	≥ 75	≥ 75	≥ 75	–	≥ 50	≥ 75
Cc1c(-c2ccc(/C=N/NC(=S)Nc3ccccc3C(C)C)cc2)nn(C)c1NC(=O)c1ccc(C(F)(F)F)cc1 [Compound C-15, N-[5-[4-[(E)-[(2-isopropylphenyl)carbamothioylhydrazono]methyl]phenyl]-2,4-dimethyl-pyrazol-3-yl]-4-(trifluoromethyl)benzamide]	≥ 75	≥ 75	≥ 75	≥ 75	–	≥ 75
CCn1nc(-c2ccc(NC(=O)O[C@@H]3O[C@@H](C)[C@H](OC)[C@@H](OC)[C@H]3OC)cc2)cc1NC(=O)c1ccc(OC(F)(F)F)cc1 [Compound C-33, [(2S,3R,4R,5S,6S)-3,4,5-trimethoxy-6-methyl-tetrahydropyran-2-yl] N-[4-[1-ethyl-5-[[4-(trifluoromethoxy)benzoyl]amino]pyrazol-3-yl]phenyl]carbamate]	≥ 75	≥ 75	≥ 75	–	≥ 50	–
CC(C)c1ccccc1N1C(=O)CS/C1=N\N=C\c1ccc(-c2cc(NC(=N)c3ccc(OC(F)(F)F)cc3)n(C)n2)cc1 [Compound C-6, N-[5-[4-[(E)-[(Z)-[3-(2-isopropylphenyl)-4-oxo-thiazolidin-2-ylidene]hydrazono]methyl]phenyl]-2-methyl-pyrazol-3-yl]-4-(trifluoromethoxy) benzamidine]	≥ 75	≥ 75	≥ 75	–	≥ 50	≥ 75
CC(C)c1ccccc1NC(=S)N/N=C/c1ccc(-c2cc(NC(=N)c3ccc(OC(F)(F)F)cc3)n(C)n2)cc1 [Compound C-5, 1-(2-isopropylphenyl)-3-[(E)-[4-[1-methyl-5-[[4-(trifluoromethoxy)benzenecarboximidoyl]amino]pyrazol-3-yl]phenyl]methyleneamino]thiourea]	≥ 75	≥ 75	≥ 75	≥ 75	≥ 50	≥ 75
CC(C)c1ccccc1NC(=S)N/N=C/c1ccc(-c2cc(NC(=O)c3ccc(OC(F)(F)F)cc3)[nH]n2)cc1 [Compound C-57, N-[3-[4-[(E)-[(2-isopropylphenyl)carbamothioylhydrazono]methyl]phenyl]-1H-pyrazol-5-yl]-4-(trifluoromethoxy)benzamide]	≥ 75	≥ 75	≥ 75	≥ 75	≥ 50	–
CC(C)c1ccccc1N1C(=O)CS/C1=N\N=C\c1ccc(-c2cc(NC(=O)c3ccc(OC(F)(F)F)cc3)[nH]n2)cc1 [Compound C-58, N-[3-[4-[(E)-[(Z)-[3-(2-isopropylphenyl)-4-oxo-thiazolidin-2-ylidene]hydrazono]methyl]phenyl]-1H-pyrazol-5-yl]-4-(trifluoromethoxy)benzamide]	≥ 75	≥ 75	≥ 75	≥ 75	≥ 50	–
CCn1nc(-c2ccc(NC(=O)O[C@@H]3O[C@@H](C)[C@H](OC)[C@@H](OC)[C@H]3OC)cc2)cc1NCc1ccc(OC(F)(F)F)cc1 [Compound C-40, [(2S,3R,4R,5S,6S)-3,4,5-trimethoxy-6-methyl-tetrahydropyran-2-yl] N-[4-[1-ethyl-5-[[4-(trifluoromethoxy)phenyl]methylamino]pyrazol-3-yl]phenyl]carbamate]	≥ 75	≥ 75	≥ 75	–	≥ 50	–
